Key:
[1] = test system: astrocyte/neuron co-culture; test: Brain cell damage induced by hydrogen peroxide treatment (LDH assay); type: cell-based; settings: Rattus norvegicus, hydrogen peroxide (250 μM), 24 hours, read-out: 50% inhibition concentration against cell damage in entire co-culture system (EC50 value)
Procedure: The brain was removed from 1 to 2 day old Wistar rats (Charles River) or Sprague-Dawley (IGS) rats (Charles River), and the cerebral cortex including the hippocampus was excised under ice cooling. After this cerebral cortex was minced, it was digested with papain solution (9 U/ml) containing DNase I (30 U/ml) at 37 degrees Celsius for 15 minutes, dispersing the cells. After further carrying out mechanical dispersing by pipetting, it was passed through a cell strainer with a pore size of 70 μm, and a cell suspension was obtained. Cells derived from 1.4 cerebra were seeded on 150 mm tissue culture dish (Iwaki Glass), and primary culture was carried out at 37 degrees Celsius and 5% CO2 using a D-MEM medium (Invitrogen) containing 10% heat-inactivated fetal calf serum (JRH). One day after the start of the culture, the nonadherent cells were removed, and the primary cultured astrocytes were obtained by continuing the culture for 4 to 5 further days. The primary cultured astrocytes were dispersed by trypsin treating, suspended in cryopreservation solution, and cryopreserved.
After thawing the cryopreserved primary cultured astrocytes, they were seeded on tissue culture plates (Iwaki Glass), and a confluent astrocyte layer was produced by a further 7 days of secondary culture using a D-MEM medium containing 10% heat-inactivated fetal calf serum. Neurons to be used in the co-culture with the astrocyte layer were obtained from fetal rat cerebrum. Briefly, brains were removed from Wistar rats (Charles River) or Sprague-Dawley (IGS) rats (Charles River) of embryonic age 18.5 days, and the cerebral cortex including the hippocampus was excised under ice cooling. After this cerebral cortex was minced, it was digested in papain solution (9 U/ml) containing DNase I (30 U/ml) at 37 degrees Celsius for 15 minutes, dispersing the cells. After further carrying out mechanical dispersing by pipetting, it was passed through a cell strainer with a pore size of 70 μm, and a cell suspension was obtained. This cell suspension was plated at a density of 1.3×10^5 cells/cm^2 on the astrocyte layer, and a co-culture was carried out using D-MEM/F-12 medium (Invitrogen) containing 10% heat-inactivated fetal calf serum and 5% horse serum (Invitrogen). 2 days after the start of the co-culture, cells were treated for 24 hours with 10 μM cytosine arabinoside in order to suppress the excessive cell proliferation of microglia and the like. 8 to 9 days after the start of the co-culture, cells were used for the test. Additionally, using one portion of the cells, immunofluorescent staining and nuclear staining was carried out with astrocyte recognizing antibodies (anti-GFAP) and neuron recognizing antibodies (anti-MAP2), in order to confirm that the present culture system is a co-culture system of astrocytes and neurons.
An astrocyte/neuron co-culture cultured on a 96 well plate was used in the test. A predetermined concentration of the test substance and hydrogen peroxide (250 μM) was simultaneously added to the cell culture in each well with continuing cultivation, and analysis was done 24 hours after this treatment. Using an LDH Cytotoxicity Detection Kit (Takara Bio), analysis was carried out in accordance with the included instruction manual, and the damage to the entire co-culture system by the hydrogen peroxide treatment and the protective effect (EC 50 value) of the test substance was evaluated. Further, the cell bodies and the neuronal processes of the neurons were observed by microscope, and the neuroprotective effect was evaluated.

| SMILES | EC50 [1] [nM] | melting point [°C] |
| --- | --- | --- |
| c1ccc2c(c1)CCN(c1nc(N3CCOCC3)cc(N3CCOCC3)n1)C2 [Compound 6, 4,6-dimorpholino-2-(1,2,3,4-tetrahydro-2H-isoquinolin-2-yl)pyrimidine] | 8240 |  |
| Nc1c(N2CCOCC2)nc(N2CCOCC2)nc1N1CCC(Cc2ccccc2)CC1 [Compound 67, 5-amino-4-(4-benzylpiperidin-1-yl)-2,6-dimorpholinopyrimidine] | 1780 |  |
| CN(C)c1nc(N2CCC(Cc3ccccc3)CC2)nc(N2CCOCC2)c1N [Compound 68, 5-amino-2-(4-benzylpiperidin-1-yl)-4-dimethylamino-6-morpholinopyrimidine] | 860 |  |
| CC1CCc2cc(F)ccc2N1c1nc(N2CCOCC2)c(N)c(N2CCOCC2)n1 (stereo not shown) [Compound 71, 5-amino-2-(6-fluoro-2-methyl-1,2,3,4-tetrahydroquinolin-1-yl)-4,6-dimorpholinopyrimidine] | 1960 |  |
| N#CC1(c2ccccc2)CCN(c2nc(N3CCOCC3)nc(N3CCOCC3)c2F)CC1 [Compound 115, 4-(4-cyano-4-phenylpiperidin-1-yl)-5-fluoro-2,6-dimorpholinopyrimidine] | 630 |  |
| OC1(c2ccccc2)CCN(c2nc(N3CCOCC3)nc(N3CCOCC3)c2F)CC1 [Compound 117, 5-fluoro-4-(4-hydroxy-4-phenylpiperidin-1-yl)-2,6-dimorpholinopyrimidine] |  | 128 to 131 |
| CC(=O)C1(c2ccccc2)CCN(c2nc(N3CCOCC3)c(F)c(N3CCOCC3)n2)CC1 [Compound 118, 2-(4-acetyl-4-phenylpiperidin-1-yl)-5-fluoro-4,6-dimorpholinopyrimidine] |  | 201 to 205 |
| Fc1c(N2CCOCC2)nc(N2CC=C(c3ccccc3)CC2)nc1N1CCOCC1 [Compound 120, 5-fluoro-4,6-dimorpholino-2-[4-phenyl-1,2,5,6-tetrahydropyridin-1-yl]pyrimidine] |  | 132 to 135 |
| Fc1c(N2CCOCC2)nc(N2CCOCC2)nc1N1CCN(C2CCCCC2)CC1 [Compound 124, 4-(4-cyclohexylpiperazin-1-yl)-5-fluoro-2,6-dimorpholinopyrimidine] |  | 125 to 128 |
| Cc1ccccc1N1CCN(c2nc(N3CCN(c4ccccc4F)CC3)nc(N3CCOCC3)c2F)CC1 [Compound 127, 5-fluoro-2-[4-(2-fluorophenyl)piperazin-1-yl]-4-[4-(2-methylphenyl)piperazin-1-yl]-6-morpholinopyrimidine] |  | 71 to 72 |
| Cc1ccccc1N1CCN(c2nc(N3CCOCC3)c(F)c(N3CCN(c4ccccc4C)CC3)n2)CC1 [Compound 129, 2,4-bis[4-(2-methylphenyl)piperazin-1-yl]-5-fluoro-6-morpholinopyrimidine] |  | 106 to 107 |
| Clc1c(N2CCOCC2)nc(N2CCN(c3ccccc3)CC2)nc1N1CCOCC1 [Compound 130, 5-chloro-4,6-dimorpholino-2-(4-phenylpiperazin-1-yl)pyrimidine] |  | 131 to 133 |
| Nc1c(N2CCOCC2)nc(/C=C/c2cccs2)nc1N1CCOCC1 [Compound 132, 5-amino-4,6-dimorpholino-2-[2-(2-thienyl)vinyl]pyrimidine] |  | 221 to 223 |
| Nc1c(N2CCOCC2)nc(/C=C/c2ccncc2)nc1N1CCOCC1 [Compound 134, 5-amino-4,6-dimorpholino-2-[2-(pyridin-4-yl)vinyl]pyrimidine] |  | 216 to 220 |
| Nc1c(N2CCOCC2)nc(/C=C/c2ccc(F)cc2)nc1N1CCOCC1 [Compound 135, 5-amino-2-[2-(4-fluorophenyl)vinyl]-4,6-dimorpholinopyrimidine] |  | 193 to 195 |
| Cc1ccccc1/C=C/c1nc(N2CCOCC2)c(N)c(N2CCOCC2)n1 [Compound 137, 5-amino-2-[2-(2-methylphenyl)vinyl]-4,6-dimorpholinopyrimidine] |  | 151 to 154 |

| SMILES | EC50 [1] [nM] | melting point [°C] |
| --- | --- | --- |
| COc1ccc(/C=C/c2nc(N(C)C)c(N)c(N3CCOCC3)n2)cc1 [Compound 138, 5-amino-4-dimethylamino-2-[2-(4-methoxyphenyl)vinyl]-6-morpholinopyrimidine] |  | 130 to 133 |
| CN(C)c1c(N2CCOCC2)nc(N2CCN(c3ccccc3)CC2)nc1N1CCOCC1 [Compound 141, 5-dimethylamino-4,6-dimorpholino-2-(4-phenylpiperazin-1-yl)pyrimidine] |  | 208 to 210 |
| O=Cc1c(N2CCOCC2)nc(N2CCN(c3ccccc3)CC2)nc1N1CCOCC1 [Compound 142, 5-formyl-4,6-dimorpholino-2-(4-phenylpiperazin-1-yl)pyrimidine] |  | 162 to 163 |
| CCN(CC)c1ccc(CCCCc2nc(N3CCOCC3)c(N)c(N3CCOCC3)n2)cc1 [Compound 145, 5-amino-2-[4-(4-diethylaminophenyl)butyl]-4,6-dimorpholinopyrimidine] | 670 |  |
| Cc1cccc(N2CCN(c3nc(N4CCN(C(=O)OC(C)(C)C)CC4)nc(N4CCOCC4)c3F)CC2)c1C [Compound 177, 2-(4-tert-butoxycarbonylpiperazin-1-yl)-5-fluoro-4-morpholino-6-[4-(2,3-xylyl)piperazin-1-yl]pyrimidine] |  | 81 to 82 |
| CC(C)(C)OC(=O)N1CCN(c2nc(N3CCN(c4ccccc4F)CC3)nc(N3CCOCC3)c2F)CC1 [Compound 181, 4-(4-tert-butoxycarbonylpiperazin-1-yl)-5-fluoro-2-[4-(2-fluorophenyl)piperazin-1-yl]-6-morpholinopyrimidine] |  | 137 to 138 |
| Fc1ccccc1N1CCN(c2nc(N3CCNCC3)c(F)c(N3CCOCC3)n2)CC1 [Compound 182, 5-fluoro-2-[4-(2-fluorophenyl)piperazin-1-yl]-4-morpholino-6-(1-piperazinyl)pyrimidine] |  | 51 to 52 |
| Cc1cccc(N2CCN(c3nc(N4CCN(C)CC4)nc(N4CCOCC4)c3F)CC2)c1C [Compound 183, 5-fluoro-2-(4-methylpiperazin-1-yl)-4-morpholino-6-[4-(2,3-xylyl)piperazin-1-yl]pyrimidine] |  | 56 to 57 |
| Cc1cccc(N2CCN(c3nc(N4CCOCC4)c(F)c(N4CCN(C)CC4)n3)CC2)c1C [Compound 184, 5-fluoro-4-(4-methylpiperazin-1-yl)-6-morpholino-2-[4-(2,3-xylyl)piperazin-1-yl]pyrimidine] |  | 67 to 68 |
| CN1CCN(c2nc(N3CCN(c4ccccc4F)CC3)nc(N3CCOCC3)c2F)CC1 [Compound 185, 5-fluoro-2-[4-(2-fluorophenyl)piperazin-1-yl]-4-(4-methylpiperazin-1-yl)-6-morpholinopyrimidine] |  | 128 to 129 |
| Cc1cccc(N2CCN(c3nc(N4CCOCC4)nc(N4CCN(C)CC4)c3F)CC2)c1C [Compound 186, 5-fluoro-4-(4-methylpiperazin-1-yl)-2-morpholino-6-[4-(2,3-xylyl)piperazin-1-yl]-pyrimidine] |  | 67 to 68 |
| CC(C)(C)OC(=O)N1CCN(c2nc(N3CCN(c4ccccc4Cl)CC3)nc(N3CCOCC3)c2F)CC1 [Compound 188, 4-(4-tert-butoxycarbonylpiperazin-1-yl)-2-[4-(2-chlorophenyl)piperazin-1-yl]-5-fluoro-6-morpholinopyrimidine] |  | 75 to 76 |
| Fc1c(N2CCNCC2)nc(N2CCN(c3ccccc3Cl)CC2)nc1N1CCOCC1 [Compound 189, 2-[4-(2-chlorophenyl)piperazin-1-yl]-5-fluoro-4-morpholino-6-(1-piperazinyl)pyrimidine] |  | 70 to 71 |
| Cc1cccc(N2CCN(c3nc(N4CCN(Cc5ccc(NC(=O)OC(C)(C)C)cc5)CC4)nc(N4CCOCC4)c3F)CC2)c1C [Compound 193, 2-[4-(4-tert-butoxycarbonylaminobenzyl)piperazin-1-yl]-5-fluoro-4-morpholino-6-[4-(2,3-xylyl)piperazin-1-yl]pyrimidine] |  | 104 to 105 |
| Cc1cccc(N2CCN(c3nc(N4CCN(Cc5ccc(N)cc5)CC4)nc(N4CCOCC4)c3F)CC2)c1C [Compound 194, 2-[4-(4-aminobenzyl)piperazin-1-yl]-5-fluoro-4-morpholino-6-[4-(2,3-xylyl)piperazin-1-yl]pyrimidine] |  | 77 to 78 |
